Source: the supplement of paper PMC8882468
± gives the standard deviation of the averaged measurements.

Tests used:
Assay in all cases: CTG-3D luminescence at 96 h relative to day-0 seeding control (ratio to day 0); higher = more growth / less cytotoxicity; PDxO 3D drug screen (set 2), 96 h, CTG-3D normalised to day-0 seeding control.
HCI-003.E2 = system: HCI-003.E2 (organoid from an ER-positive breast cancer xenograft)
HCI-027 = system: HCI-027 (organoid from a triple-negative breast cancer xenograft)
HCI-005.E2 = system: HCI-005.E2 (organoid from a breast cancer xenograft with a HER2-positive history)
HCI-017.E2 = system: HCI-017.E2 (organoid from an ER-positive breast cancer xenograft)
HCI-016 = system: HCI-016 (organoid from a triple-negative breast cancer xenograft)
HCI-010 = system: HCI-010 (organoid from a breast cancer xenograft)

Nc1cc(C(F)(F)F)c(-c2cc(N3CCOCC3)nc(N3CCOCC3)n2)cn1 [buparlisib]
CTG-3D luminescence at 96 h
Conditions | 12.5 pM | 0.00025 µM | 0.005 µM | 0.1 µM | 1 µM | 10 µM | 100 µM | 625 fM
HCI-003.E2 | 2.55 ± 0.32 | 2.29 ± 0.59 | 2.6 ± 0.5 | 2.53 ± 0.85 | 0.705 ± 0.19 | 0.037 ± 0.009 | 0.0142 ± 0.0033 | 2.71 ± 0.7
HCI-005.E2 | 1.84 ± 0.51 | 2.58 ± 0.53 | 2.64 ± 0.52 | 3.03 ± 1 | 1.45 ± 0.33 | 0.703 ± 0.086 | 0.594 ± 0.17 | 2.11 ± 0.7
HCI-017.E2 | 1.864 ± 0.0089 | 2.59 ± 0.59 | 2.12 ± 0.061 | 2.15 ± 0.59 | 0.869 ± 0.2 | 0.263 ± 0.024 | 0.208 ± 0.047 | 2.26 ± 0.043

CTG-3D luminescence at 96 h
Conditions | 12.5 pM | 0.00025 µM | 0.005 µM | 0.1 µM | 1 µM | 10 µM | 100 µM | 625 fM
HCI-010, days in culture: 79 | 1.69 | 1.83 | 1.84 | 1.83 | 1.02 | 0.456 | 0.0891 | 2
HCI-010, days in culture: 86 | 2 | 2.29 | 2.49 | 2.33 | 1.36 | 0.525 | 0.146 | 2.19
HCI-010, days in culture: 102 | 1.08 | 1.24 | 1.36 | 1.38 | 0.738 | 0.309 | 0.0336 | 0.982
HCI-010, days in culture: 164 | 1.62 | 1.52 | 1.57 | 1.65 | 1.04 | 0.556 | 0.11 | 1.37
HCI-016, days in culture: 305 | 2.89 | 2.88 | 2.23 | 4.87 | 1.89 | 0.444 | 0.606 | 5.12
HCI-016, days in culture: 327 | 1.19 | 1.21 | 1.32 | 2.02 | 1.16 | 0.497 | 0.431 | 1.23
HCI-016, days in culture: 341 | 2.17 | 1.78 | 2.04 | 2.44 | 1.48 | 0.65 | 0.484 | 2.59
HCI-016, days in culture: 397 | 1.77 | 2.39 | 1.33 | 2.74 | 1.41 | 0.71 | 0.511 | 2.25
HCI-017.E2, days in culture: 85 | 2.1 | 1.79 | 1.67 | 1.9 | 0.668 | 0.194 | 0.256 | 2.53
HCI-027, days in culture: 145 | 1.54 | 1.52 | 1.25 | 1.43 | 0.692 | 0.328 | 0.299 | 2.3
HCI-027, days in culture: 158 | 2.38 | 2.8 | 2.6 | 2.57 | 0.949 | 0.818 | 0.172 | 2.61
HCI-027, days in culture: 164 | 1.85 | 1.65 | 1.59 | 2.16 | 0.625 | 0.478 | 0.612 | 1.57
HCI-027, days in culture: 176 | 4.08 | 3.24 | 0.833 | 1.54 | 0.26 | 0.384 | 0.144 | 2.31
HCI-027, days in culture: 186 | 1.86 | 1.61 | 2.44 | 1.65 | 0.528 | 0.223 | 0.169 | 2.21

CC(C)n1nc(-c2ccc3oc(N)nc3c2)c2c(N)ncnc21 [sapanisertib]
CTG-3D luminescence at 96 h
Conditions | 12.5 pM | 0.00025 µM | 0.005 µM | 0.1 µM | 1 µM | 10 µM | 100 µM | 625 fM
HCI-003.E2 | 2.44 ± 0.35 | 2.37 ± 0.23 | 2.1 ± 0.75 | 0.144 ± 0.073 | 0.0411 ± 0.026 | 0.0196 ± 0.0061 | 0.00904 ± 0.0012 | 2.87 ± 0.73
HCI-005.E2 | 1.96 ± 0.49 | 2.23 ± 0.41 | 2.42 ± 0.13 | 1.23 ± 0.85 | 0.685 ± 0.28 | 0.506 ± 0.066 | 0.0873 ± 0.017 | 1.98 ± 0.6
HCI-017.E2 | 2.17 ± 0.34 | 2.44 ± 0.51 | 1.79 ± 0.052 | 0.877 ± 0.12 | 0.558 ± 0.031 | 0.399 ± 0.099 | 0.125 ± 0.061 | 2.58 ± 0.079

CTG-3D luminescence at 96 h
Conditions | 12.5 pM | 0.00025 µM | 0.005 µM | 0.1 µM | 1 µM | 10 µM | 100 µM | 625 fM
HCI-010, days in culture: 79 | 1.62 | 1.71 | 1.53 | 0.599 | 0.388 | 0.119 | 0.00579 | 1.95
HCI-010, days in culture: 86 | 2.29 | 2.56 | 2.36 | 0.928 | 0.647 | 0.182 | 0.012 | 2.51
HCI-010, days in culture: 102 | 1.31 | 1.4 | 1.07 | 0.401 | 0.241 | 0.0381 | 0.00408 | 1.02
HCI-010, days in culture: 164 | 1.54 | 1.67 | 1.55 | 0.695 | 0.643 | 0.245 | 0.0314 | 1.37
HCI-016, days in culture: 305 | 2.57 | 3.24 | 2.48 | 1.62 | 0.527 | 0.566 | 0.455 | 3.26
HCI-016, days in culture: 327 | 1.38 | 1.23 | 1.37 | 0.784 | 0.464 | 0.679 | 0.258 | 1.7
HCI-016, days in culture: 341 | 2.37 | 1.72 | 2.04 | 1.14 | 0.566 | 0.673 | 0.378 | 2.96
HCI-016, days in culture: 397 | 1.83 | 2.36 | 1.47 | 1.2 | 0.701 | 0.688 | 0.324 | 2.37
HCI-017.E2, days in culture: 85 | 2.14 | 1.78 | 2.08 | 0.908 | 0.515 | 0.249 | 0.14 | 2.37
HCI-027, days in culture: 145 | 1.73 | 1.87 | 1.67 | 0.675 | 0.62 | 0.3 | 0.158 | 1.76
HCI-027, days in culture: 158 | 1.38 | 2.26 | 2.09 | 1.46 | 0.941 | 0.992 | 0.124 | 3.36
HCI-027, days in culture: 164 | 1.86 | 1.51 | 1.15 | 1.08 | 1.1 | 0.369 | 0.41 | 2.35
HCI-027, days in culture: 176 | 3.48 | 2.27 | 1.45 | 1.22 | 0.927 | 0.364 | 0.195 | 2.69
HCI-027, days in culture: 186 | 0.934 | 1.54 | 1.53 | 1.25 | 0.548 | 0.717 | 0.142 | 2.62
